Source: patent US12552790B2, “Positive modulators of the muscarinic acetylcholine receptor M4” (Vanderbilt University, priority 2023, dated 2026)
pIC50: −log10 of the molar value.

Experiments:
[1] = molecular target: P450 2D6 (Homo sapiens, UniProt P10635); test: P450 2D6 inhibition; format: in vitro ADME
Excerpt: (§1) Compounds may be tested in in vitro assays to investigate both metabolism and pharmacokinetics. These assays may be performed according to known methods as generally described in the following references: Conde-Ceide et al. ACS Med. Chem. Lett. 2015, 6, 716-720; Morris et al. J. Med. Chem. 2014, 57, 10192-10197; and Bubser et al. ACS Chem. Neurosci. 2014, 5, 920-942.

[2] = system: amphetamine-induced hyperlocomotion in male Sprague-Dawley rats; test: Amphetamine-induced hyperlocomotion in rats; format: in vivo; settings: rat; for percent reversal of amphetamine-induced hyperlocomotion: amphetamine 0.75 mg/kg s.c.
Protocol: Drugs: d-Amphetamine hemisulfate was obtained from Sigma (St. Louis, MO). Salt-correction was used to determine the correct amount of the d-amphetamine hemisulfate form in milligrams to add to sterile water in order to yield a 0.75 mg/mL solution, which would be dosed at 1 mL/kg body weight of each animal. […] The solutions were formulated so that animals were injected with a volume equal to 10 mL/kg body weight for all compounds. The appropriate amount according to the dosage was mixed in 10% Tween 80 (Sigma) in sterile water. The mixtures were then vortexed and stored in a 39° C. sonication bath for 1 hour, until in a solution or microsuspension (depending on dose).
Animals: Male Sprague-Dawley rats weighing 239-300 grams and averaging 265 g (Harlan, Inc., Indianapolis, IN) were used. They were housed in the animal care facility certified by the American Association for the Accreditation of Laboratory Animal Care (AALAC) under a 12-hour light/dark cycle (lights on: 6 a.m.; lights off: 6 p.m.) and had free access to food and water. The animals used in this experiment were food-deprived the evening before experimentation for oral dosing of compound/vehicle. The experimental protocols performed during the light cycle were approved by the Institutional Animals Care and Use Committee of Vanderbilt University and conformed to the guidelines established by the National Research Council Guide for the Care and Use of Laboratory Animals.
Amphetamine-induced Hyperlocomotion: Male Harlan Sprague Dawley rats were habituated in Smart Open Field locomotor activity test chambers (Hamilton-Kinder, San Diego, CA) with 16×16 photo beams to automatically record locomotor activity. […] They were monitored for an additional 30 minutes and then injected subcutaneously with vehicle or 0.75 mg/kg amphetamine. Animals were then monitored for an additional 60 minutes, for a total of 120 minutes. Data were expressed as changes in ambulation defined as total number of beam breaks per 5 minute interval. Terminal brain and plasma samples were collected at the end of the study for pharmacokinetic analysis.
Data Analysis: Behavioral data were analyzed using a two-way ANOVA with main effects of treatment and time. Post hoc analysis was performed using a Dunnett's t-test with all treatment groups compared to the Vehicle/amphetamine group (VAMP) group using GraphPad Prism V.5.04 (GraphPad Software, San Diego, CA). Data were graphed using GraphPad Prism V.5.04 (GraphPad Software, San Diego, CA). A probability of p≤0.05 was taken as the level of statistical significance. In addition, the total number of beam breaks from the amphetamine administration (65 min) to the end of the study (120 min) was calculated and graphed. Percent Reversal was calculated as follows using Microsoft Excel: In each animal, total ambulation from t=65 to t=120 was summed. The mean of each sum was calculated in the VAMP group. Then, for each animal, Percent Reversal was calculated with the following formula: Percent Reversal=100−{[(total ambulation in each animal from t=65 to t=120)/(mean of each sum from t=65 to t=120 in VAMP group)]*100}. The mean Percent Reversal, as well as the standard error, was calculated for each dose group using GraphPad Prism V5.04.

[3] = In vivo pharmacokinetic study in rat
[4] = Human fraction unbound in plasma; format: in vitro ADME; settings: read-out: Human Fu (plasma)
Excerpt: as §1

[5] = Rat fraction unbound in brain; format: in vitro ADME; settings: read-out: Rat Fu (brain)
Excerpt: as §1

[6] = system: 68 primary molecular targets; test: Eurofins LeadProfilingScreen (binding); settings: 10 μM (binding), 68 targets
Excerpt: The screen includes 68 primary molecular targets, including several CNS targets recommended by the EMEA to evaluate drug dependence potential.

[7] = MDCK-MDR1 efflux ratio and permeability; format: in vitro ADME; settings: dog, MDCK-MDR1
Excerpt: as §1

[8] = system: MDCK-MDR1; test: MDCK-MDR1 efflux ratio and permeability; format: in vitro ADME; settings: efflux ratio
Excerpt: as §1

[9] = Rat fraction unbound in plasma; format: in vitro ADME; settings: read-out: Rat Fu (plasma)
Excerpt: as §1

[10] = Dog intrinsic clearance; format: in vitro ADME
Excerpt: as §1

[11] = Rat intrinsic clearance; format: in vitro ADME
Excerpt: as §1

[12] = In vivo pharmacokinetic study in dog

Sequence of P450 2D6 (P10635 whole entry): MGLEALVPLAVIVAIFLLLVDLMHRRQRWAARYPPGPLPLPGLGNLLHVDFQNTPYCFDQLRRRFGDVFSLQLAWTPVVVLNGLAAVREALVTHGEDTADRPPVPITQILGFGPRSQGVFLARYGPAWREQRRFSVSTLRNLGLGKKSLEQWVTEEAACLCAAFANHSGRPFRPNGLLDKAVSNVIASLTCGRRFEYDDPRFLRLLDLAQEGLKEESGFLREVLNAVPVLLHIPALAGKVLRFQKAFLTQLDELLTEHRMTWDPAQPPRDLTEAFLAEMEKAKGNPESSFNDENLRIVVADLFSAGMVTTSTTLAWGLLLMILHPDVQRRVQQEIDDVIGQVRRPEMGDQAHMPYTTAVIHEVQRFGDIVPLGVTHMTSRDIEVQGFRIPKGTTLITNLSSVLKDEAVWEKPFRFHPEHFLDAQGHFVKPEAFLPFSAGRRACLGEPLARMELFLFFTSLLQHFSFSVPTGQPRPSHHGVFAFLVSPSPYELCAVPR

pIC50 [1]: < 4.00
Rat oral F ([3]; 3 mg/kg oral): >100%
Kp ([3]; brain, read-out: Rat brain: plasma Kp): 1.2
Kp uu ([3]; brain, unbound, read-out: Rat brain: plasma Kp, uu): 0.7
clearance ([3]; plasma, read-out: Rat CLp): 16.9 mL/min/kg
half-life ([3]; plasma, read-out: Rat Elim. t1/2 (converted)): 1.4 h
Vd ([3]; plasma, read-out: Rat Vss): 1.6 L/kg
fraction unbound [4]: 0.022
fraction unbound [5]: 0.015
inhibition of each target in the LeadProfilingScreen [6]: < 50%
Papp A→B [7]: 45.5 ×10⁻⁶ cm/s
MDCK-MDR1 ER [8]: 1.3
fraction unbound [9]: 0.026
CLint scaled [10]: 19 mL/min/kg
CLint scaled [11]: 90 mL/min/kg
Dog oral F ([12]; 3 mg/kg oral): 89%
clearance ([12]; plasma, read-out: Dog CLp): 1.8 mL/min/kg
half-life ([12]; plasma, read-out: Dog Elim. t1/2 (converted)): 7.6 h
Vd ([12]; plasma, read-out: Dog Vss): 1 L/kg
Structure (SMILES): [2H]C1([2H])Oc2ccc(OC3CCN(c4nc5c(cc4C)C(=O)NC5)CC3)cc2OC1([2H])[2H] [Compound 3, 2-(4-((2,3-dihydrobenzo[b][1,4]dioxin-6-yl-2,2,3,3-d4)oxy)piperidin-1-yl)-3-methyl-6,7-dihydro-5H-pyrrolo[3,4-b]pyridin-5-one]
percent reversal of amphetamine-induced hyperlocomotion ([2]; 1 mg/kg oral gavage): 27.5%
percent reversal of amphetamine-induced hyperlocomotion ([2]; 1.8 mg/kg oral gavage): 40.1%
percent reversal of amphetamine-induced hyperlocomotion ([2]; 3 mg/kg oral gavage): 59.1%
percent reversal of amphetamine-induced hyperlocomotion ([2]; 5.6 mg/kg oral gavage): 60.9%
reversal of amphetamine-induced hyperlocomotion (in words) ([2]; systemic administration): significant and sustained reversal
